Assay results as given in patent publication US20150191445A1, “ACYL-HYDRAZONE AND OXADIAZOLE COMPOUNDS, PHARMACEUTICAL COMPOSITIONS CONTAINING THE SAME AND USES THEREOF” (Universidade Federal de Santa Catarina, priority 2011, published 2015).
“Also recorded” adds a separate entry of the source.

How the values were obtained:
[1] = system: human leukemic Jurkat cells and HEK; assay: Screening of compounds by cell viability assay (MTT) in leukemic cells; type: cell-based; conditions: leukemic cells of Jurkat and HEK strains
Method: RPMI-1640 medium with 10% FBS (fetal bovine serum), 100 IU/mL penicillin, 100 µg/mL streptomycin and incubated at 37° C. and 5% CO2. Cytotoxicity assays were performed according to the method described in the literature (Pieters, R.; et al. In vitro drug sensitivity of cells from children with leukemia using the MTT assay with improved culture conditions. Blood, 1990, 76, 2327-2336; Pieters, R.; et al. Relation of cellular drug resistance to long-term clinical outcome in childhood acute lymphoblastic leukaemia. Lancet, 1991, 338, 399-403 e Kaspers, G. J.; et al. In vitro cellular drug resistance and prognosis in newly diagnosed childhood acute lymphoblastic leukemia. Blood, 1997, 90, 2723). Cells were resuspended at a concentration of 3.75 10^5 cells/mL in culture medium as described. Eighty microliters of this suspension were seeded into plates with 96 round-bottom wells, containing 20 microliters of different concentrations of compound or vehicle alone. Each treatment was done in triplicate. […] After incubating overnight, absorbance reading at 570 nm was carried out. The percentage of cells surviving the treatment were calculated relative to the number of surviving cells in the medium without addition of the compounds in question (“negative control”). […]

HL-60 cells = assay: DNA microarray gene expression and GSEA analysis; type: cell-based, human; conditions: 125 nM, 6 h
Method: The cells were incubated for 12 hours in fresh medium before the experiments. Two million cells from the leukemic cell line HL60, in triplicate, were treated with a 125 nM dose of compound 07 or with dimethylsulfoxide (DMSO) vehicle for 6 h, in DMEM supplemented with 10% fetal bovine serum. At the end of this period, the cells were recovered by brief centrifugation and lysed in a solution of guanidine of the RNAspin Mini RNA Isolation kit (GE).
Total RNA was extracted from cells using the RNAspin Mini RNA Isolation kit (GE) following the manufacturer's instructions. A total of 100 ng of RNA was used to prepare biotinylated complementary RNA probes (Bio-cRNA), by cDNA synthesis followed by amplification by in vitro transcription, using the GeneChip WT cDNA Synthesis and Amplification kit (Affymetrix) according to the recommendations of the manufacturer. […]
the results of the microarray hybridization were read in the Affymetrix Gene Chip Scanner 3000-7G. Data were analyzed in the Bioconductor platform. […] The list of differentially expressed genes were analyzed using the CMap (http://www.broad.mit.edu/cmap/) for identification of possible action mechanisms related to the action of known compounds (Lamb, J., Crawford E. D. The Connectivity Map: Using Gene-Expression Signatures to Connect Small Molecules, Genes and Disease Science 2006, 313, 1929-1935). […]

[2] = molecular target: Trypanosoma cruzi cruzain (Trypanosoma cruzi, UniProt P25779); conditions: cited from earlier work
Chain of Trypanosoma cruzi cruzain (P25779 123-467): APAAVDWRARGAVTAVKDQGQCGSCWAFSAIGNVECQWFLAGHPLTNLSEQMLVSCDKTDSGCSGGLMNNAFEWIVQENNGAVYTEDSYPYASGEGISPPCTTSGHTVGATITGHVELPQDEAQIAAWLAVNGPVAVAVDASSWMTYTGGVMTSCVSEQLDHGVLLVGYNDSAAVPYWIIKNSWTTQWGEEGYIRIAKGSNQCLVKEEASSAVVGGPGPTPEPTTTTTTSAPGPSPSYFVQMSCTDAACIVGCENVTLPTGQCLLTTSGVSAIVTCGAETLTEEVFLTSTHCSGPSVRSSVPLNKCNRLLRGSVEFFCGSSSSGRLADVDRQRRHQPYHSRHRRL

[3] = system: healthy and phytohemagglutinin-stimulated lymphocytes; assay: MTT assay on normal lymphocytes stimulated with phytohemagglutinin; type: cell-based, human; conditions: for Percentage of survival: 48 h, MTT
Method: for the test of compound 07 against normal lymphocytes, blood from human donors was separated in a ficoll gradient and the mononuclear cells were cultivated at 200,000 cells/well, in 80 microliters of RPMI-1640 (containing 10% FBS, 100 IU/mL penicillin and 100 μg/mL streptomycin) and 20 microliters of phytohemagglutinin solution (Cultilab) in each well for stimulation of T lymphocytes. Compound 07 was added in serial dilutions (50%) from 300 to 1 nm. As a control, parallel tests were run with cells from leukemic Jurkat and REH cell lines, and experiments with colchicine with the same concentrations as compound 07. Cytotoxicity was assessed after 48 hours by the MTT method, as described Above.

COc1cc(C(=O)NN=Cc2cccc3ccccc23)cc(OC)c1OC [Compound 07]
antileukemic activity [1]: excellent antileukemic activity; also recorded: significant antileukemic activity
expression of tubulin and tubulin-specific chaperone gene set (GSEA) (HL-60 cells): drastic reduction of the expression of a set of genes of tubulin and tubulin-specific chaperones
inhibitory activity of cruzain [2]: did not show inhibitory activity
effect on normal lymphocytes induced by phytohemagglutinin [3]: do not appear to affect normal lymphocytes
selectivity for leukemic cells compared to healthy human lymphocytes [3]: ~10 times
Percentage of survival ([3]; 4.6 nM): 103%
Percentage of survival ([3]; 9.38 nM): 105%
Percentage of survival ([3]; 18.75 nM): 105%
Percentage of survival ([3]; 37.5 nM): 101%
Percentage of survival ([3]; 75 nM): 108%
Percentage of survival ([3]; 150 nM): 107%
Percentage of survival ([3]; 300 nM): 95%
